Laboratory results published in patent US20240270762A1, “PENICILLIN-BINDING PROTEIN INHIBITORS” (priority 2021, published 2024).
Converted amounts (≈) assume the structure as drawn.

Columns and labels:
[1] = test system: B. humptydooensis ATCC BAA-2767; assay: microbe, parasite or virus in culture; type: cell-based; settings: Burkholderia humptydooensis, ATCCBAA2767, read-out: Minimum inhibitory concentration (MIC), B. humptydooensis ATCC BAA-2767
A. baumannii CDC-0045 = assay: microbe, parasite or virus in culture; type: cell-based; settings: Acinetobacter baumannii, CDC0045, read-out: MIC, A. baumannii CDC-0045
P. aeruginosa ATCC 35151 = assay: microbe, parasite or virus in culture; type: cell-based; settings: Pseudomonas aeruginosa, ATCC35151, read-out: Minimum inhibitory concentration, P. aeruginosa ATCC 35151
A. baumannii CDC-0033 = assay: microbe, parasite or virus in culture; type: cell-based; settings: Acinetobacter baumannii, CDC0033, read-out: MIC, A. baumannii CDC-0033
P. aeruginosa CDC-0054 = assay: microbe, parasite or virus in culture; type: cell-based; settings: Pseudomonas aeruginosa, CDC0054, read-out: Minimum inhibitory concentration, P. aeruginosa CDC-0054
A. baumannii ATCC 19606 = assay: microbe, parasite or virus in culture; type: cell-based; settings: Acinetobacter baumannii, ATCC19606, read-out: MIC, A. baumannii ATCC 19606
P. aeruginosa ATCC 27853 = assay: microbe, parasite or virus in culture; type: cell-based; settings: Pseudomonas aeruginosa, ATCC27853, read-out: Minimum inhibitory concentration, P. aeruginosa ATCC 27853
[2] = test system: B. thailandensis ATCC 700388; assay: microbe, parasite or virus in culture; type: cell-based; settings: Burkholderia thailandensis, ATCC700388, read-out: Minimum inhibitory concentration (MIC), B. thailandensis ATCC 700388
[3] = target: T1, PBP3 from Escherichia coli (K-12) (Escherichia coli, UniProt P0AD68); assay: Bocillin-FL fluorescence polarization competition binding, E. coli PBP3
T1 construct: made in house
T1 sequence (P0AD68 1-577): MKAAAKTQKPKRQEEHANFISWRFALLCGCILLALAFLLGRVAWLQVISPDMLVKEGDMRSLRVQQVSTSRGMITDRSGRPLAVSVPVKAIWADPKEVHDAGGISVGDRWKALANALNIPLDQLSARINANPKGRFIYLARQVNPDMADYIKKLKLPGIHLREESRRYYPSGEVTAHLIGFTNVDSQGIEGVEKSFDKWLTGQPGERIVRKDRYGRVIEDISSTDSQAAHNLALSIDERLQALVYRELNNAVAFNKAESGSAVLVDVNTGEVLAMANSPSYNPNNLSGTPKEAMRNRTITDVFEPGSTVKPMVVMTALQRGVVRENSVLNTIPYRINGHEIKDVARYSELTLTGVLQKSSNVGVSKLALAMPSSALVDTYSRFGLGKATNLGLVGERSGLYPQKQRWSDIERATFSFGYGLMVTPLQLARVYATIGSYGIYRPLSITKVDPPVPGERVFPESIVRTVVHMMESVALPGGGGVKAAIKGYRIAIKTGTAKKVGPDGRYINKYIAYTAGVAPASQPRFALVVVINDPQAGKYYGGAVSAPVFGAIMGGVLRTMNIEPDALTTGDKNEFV
Method in brief: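 Purified PBP was preincubated with inhibitor (E. coli PBP3 1.5 μM, 30 min; P. aeruginosa PBP3 0.75 μM, A. baumannii PBP3 0.2 μM and PBP1a 1 μM, 15 min), then Bocillin-FL (0.1 μM; 0.05 μM for PBP1a) added and FP read up to 60 min. EC50 = 50% loss of bound probe.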

P. aeruginosa CDC-0090 = assay: microbe, parasite or virus in culture; type: cell-based; settings: Pseudomonas aeruginosa, CDC0090, read-out: Minimum inhibitory concentration, P. aeruginosa CDC-0090
A. baumannii CDC-0083 = assay: microbe, parasite or virus in culture; type: cell-based; settings: Acinetobacter baumannii, CDC0083, read-out: MIC, A. baumannii CDC-0083
P. aeruginosa CDC-0095 = assay: microbe, parasite or virus in culture; type: cell-based; settings: Pseudomonas aeruginosa, CDC0095, read-out: Minimum inhibitory concentration, P. aeruginosa CDC-0095

SMILES	MIC [1] [µg/mL]	MIC (A. baumannii CDC-0045) [µg/mL]	MIC (P. aeruginosa ATCC 35151) [µg/mL]	MIC (A. baumannii CDC-0033) [µg/mL]	MIC (P. aeruginosa CDC-0054) [µg/mL]	MIC (A. baumannii ATCC 19606) [µg/mL]	MIC (P. aeruginosa ATCC 27853) [µg/mL]	MIC [2] [µg/mL]	EC50 [3] [µM]	MIC (P. aeruginosa CDC-0090) [µg/mL]	MIC (A. baumannii CDC-0083) [µg/mL]	MIC (P. aeruginosa CDC-0095) [µg/mL]
O=C(NCCCN1CCN(C(=O)N[C@H](C(=O)N[C@H]2Cc3ccc(F)c(C(=O)O)c3OB2O)c2cc(F)c(O)c(O)c2Cl)C(=O)C1=O)c1cccc(O)c1Cl [Example 302, (R)-3-((S)-2-(4-(3-(2-chloro-3-hydroxybenzamido)propyl)-2,3-dioxopiperazine-1-carboxamido)-2-(2-chloro-5-fluoro-3,4-dihydroxyphenyl)acetamido)-7-fluoro-2-hydroxy-3,4-dihydro-2H-benzo[e][1,2]oxaborinine-8-carboxylic acid]	> 128	> 128	2 to 4 (≈ 2.52 to 5.04 µM)	> 128	32 to 64 (≈ 40.3 to 80.6 µM)	32 to 64 (≈ 40.3 to 80.6 µM)	32 to 64 (≈ 40.3 to 80.6 µM)	> 128	> 250	32 to 64 (≈ 40.3 to 80.6 µM)	> 128	> 128
O=C(NCCCN1CCN(C(=O)N[C@@H](C(=O)N[C@H]2Cc3ccc(F)c(C(=O)O)c3OB2O)c2cc(F)c(O)c(O)c2Cl)C(=O)C1=O)c1cccc(O)c1Cl [Example 303, (R)-3-((R)-2-(4-(3-(2-chloro-3-hydroxybenzamido)propyl)-2,3-dioxopiperazine-1-carboxamido)-2-(2-chloro-5-fluoro-3,4-dihydroxyphenyl)acetamido)-7-fluoro-2-hydroxy-3,4-dihydro-2H-benzo[e][1,2]oxaborinine-8-carboxylic acid]	< 1	< 1	< 1	2 to 4 (≈ 2.52 to 5.04 µM)	< 1	< 1	< 1	< 1	< 10	< 1	< 1	< 1
O=C(NCCCN1CCN(C(=O)NC(C(=O)N[C@H]2Cc3ccc(F)c(C(=O)O)c3OB2O)c2cc(F)c(O)c(O)c2Cl)C(=O)C1=O)c1ccc(O)c(F)c1 (stereo partly drawn) [Example 304, (3R)-3-(2-(2-chloro-5-fluoro-3,4-dihydroxyphenyl)-2-(4-(3-(3-fluoro-4-hydroxybenzamido)propyl)-2,3-dioxopiperazine-1-carboxamido)acetamido)-7-fluoro-2-hydroxy-3,4-dihydro-2H-benzo[e][1,2]oxaborinine-8-carboxylic acid]	2 to 4 (≈ 2.57 to 5.14 µM)	< 1	< 1	2 to 4 (≈ 2.57 to 5.14 µM)	2 to 4 (≈ 2.57 to 5.14 µM)	< 1	2 to 4 (≈ 2.57 to 5.14 µM)	2 to 4 (≈ 2.57 to 5.14 µM)	< 10	< 1	< 1	< 1
O=C(NCCCN1CCN(C(=O)NC(C(=O)N[C@H]2Cc3ccc(F)c(C(=O)O)c3OB2O)c2cc(F)c(O)c(O)c2Cl)C(=O)C1=O)c1ccc(O)c(Cl)c1 (stereo partly drawn) [Example 305, (3R)-3-(2-(4-(3-(3-chloro-4-hydroxybenzamido)propyl)-2,3-dioxopiperazine-1-carboxamido)-2-(2-chloro-5-fluoro-3,4-dihydroxyphenyl)acetamido)-7-fluoro-2-hydroxy-3,4-dihydro-2H-benzo[e][1,2]oxaborinine-8-carboxylic acid]	2 to 4 (≈ 2.52 to 5.04 µM)	2 to 4 (≈ 2.52 to 5.04 µM)	< 1	2 to 4 (≈ 2.52 to 5.04 µM)	2 to 4 (≈ 2.52 to 5.04 µM)	< 1	2 to 4 (≈ 2.52 to 5.04 µM)	2 to 4 (≈ 2.52 to 5.04 µM)	< 10	< 1	2 to 4 (≈ 2.52 to 5.04 µM)	2 to 4 (≈ 2.52 to 5.04 µM)
O=C(NCCCN1CCN(C(=O)NC(C(=O)N[C@H]2Cc3ccc(F)c(C(=O)O)c3OB2O)c2cc(F)c(O)c(O)c2Cl)C(=O)C1=O)c1ccc(O)c(F)c1F (stereo partly drawn) [Example 306, (3R)-3-(2-(2-chloro-5-fluoro-3,4-dihydroxyphenyl)-2-(4-(3-(2,3-difluoro-4-hydroxybenzamido)propyl)-2,3-dioxopiperazine-1-carboxamido)acetamido)-7-fluoro-2-hydroxy-3,4-dihydro-2H-benzo[e][1,2]oxaborinine-8-carboxylic acid]	2 to 4 (≈ 2.51 to 5.03 µM)	< 1	< 1	2 to 4 (≈ 2.51 to 5.03 µM)	2 to 4 (≈ 2.51 to 5.03 µM)	< 1	2 to 4 (≈ 2.51 to 5.03 µM)	2 to 4 (≈ 2.51 to 5.03 µM)	< 10	< 1	2 to 4 (≈ 2.51 to 5.03 µM)	< 1
O=C(NCCCN1CCN(C(=O)NC(C(=O)N[C@H]2Cc3ccc(F)c(C(=O)O)c3OB2O)c2cc(F)c(O)c(O)c2Cl)C(=O)C1=O)c1ccc(O)cc1O (stereo partly drawn) [Example 307, (3R)-3-(2-(2-chloro-5-fluoro-3,4-dihydroxyphenyl)-2-(4-(3-(2,4-dihydroxybenzamido)propyl)-2,3-dioxopiperazine-1-carboxamido)acetamido)-7-fluoro-2-hydroxy-3,4-dihydro-2H-benzo[e][1,2]oxaborinine-8-carboxylic acid]	8 to 16 (≈ 10.3 to 20.6 µM)	< 1	< 1	2 to 4 (≈ 2.58 to 5.16 µM)	2 to 4 (≈ 2.58 to 5.16 µM)	< 1	2 to 4 (≈ 2.58 to 5.16 µM)	8 to 16 (≈ 10.3 to 20.6 µM)	< 10	< 1	< 1	< 1
O=C(O)c1c(F)ccc2c1OB(O)[C@@H](NC(=O)C(NC(=O)N1CCN(C3CCN(C(=O)c4c(F)ccc(O)c4F)CC3)C(=O)C1=O)c1cc(F)c(O)c(O)c1Cl)C2 (stereo partly drawn) [Example 308, (3R)-3-(2-(2-chloro-5-fluoro-3,4-dihydroxyphenyl)-2-(4-(1-(2,6-difluoro-3-hydroxybenzoyl)piperidin-4-yl)-2,3-dioxopiperazine-1-carboxamido)acetamido)-7-fluoro-2-hydroxy-3,4-dihydro-2H-benzo[e][1,2]oxaborinine-8-carboxylic acid]	2 to 4 (≈ 2.43 to 4.87 µM)	< 1	< 1	2 to 4 (≈ 2.43 to 4.87 µM)	< 1	< 1	< 1	2 to 4 (≈ 2.43 to 4.87 µM)	< 10	2 to 4 (≈ 2.43 to 4.87 µM)	< 1	2 to 4 (≈ 2.43 to 4.87 µM)
O=C(O)c1c(F)ccc2c1OB(O)[C@@H](NC(=O)C(NC(=O)N1CCN(C3CCN(C(=O)c4cc(O)cc(O)c4)CC3)C(=O)C1=O)c1cc(F)c(O)c(O)c1Cl)C2 (stereo partly drawn) [Example 309, (3R)-3-(2-(2-chloro-5-fluoro-3,4-dihydroxyphenyl)-2-(4-(1-(3,5-dihydroxybenzoyl)piperidin-4-yl)-2,3-dioxopiperazine-1-carboxamido)acetamido)-7-fluoro-2-hydroxy-3,4-dihydro-2H-benzo[e][1,2]oxaborinine-8-carboxylic acid]	< 1	< 1	< 1	2 to 4 (≈ 2.49 to 4.99 µM)	< 1	< 1	2 to 4 (≈ 2.49 to 4.99 µM)	< 1	< 10	2 to 4 (≈ 2.49 to 4.99 µM)	< 1	2 to 4 (≈ 2.49 to 4.99 µM)
CN(CCCN1CCN(C(=O)NC(C(=O)N[C@H]2Cc3ccc(F)c(C(=O)O)c3OB2O)c2cc(F)c(O)c(O)c2Cl)C(=O)C1=O)C(=O)c1cccc(O)c1 (stereo partly drawn) [Example 310, (3R)-3-(2-(2-chloro-5-fluoro-3,4-dihydroxyphenyl)-2-(4-(3-(3-hydroxy-N-methylbenzamido)propyl)-2,3-dioxopiperazine-1-carboxamido)acetamido)-7-fluoro-2-hydroxy-3,4-dihydro-2H-benzo[e][1,2]oxaborinine-8-carboxylic acid]	< 1	< 1	< 1	2 to 4 (≈ 2.58 to 5.17 µM)	< 1	< 1	< 1	2 to 4 (≈ 2.58 to 5.17 µM)	< 10	2 to 4 (≈ 2.58 to 5.17 µM)	< 1	2 to 4 (≈ 2.58 to 5.17 µM)
